These results are taken from paper PMC5891061, “Electrophysiological mechanisms of vandetanib-induced cardiotoxicity: Comparison of action potentials in rabbit Purkinje fibers and pluripotent stem cell-derived cardiomyocytes” (PLoS ONE, 2018).

The conditions of series [1]: cited from earlier work.
Another series concerns the target Y652A hERG (Homo sapiens, UniProt Q12809, Y652A). The experiment in a line: in vitro. Conditions: HEK-293 cells transiently expressing Y652A mutant hERG. A general note: The hERG channel carries a current that helps repolarise heart muscle cells.
The target in the next series is hERG (IKr) (Homo sapiens, UniProt Q12809). The experiment in a line: Whole-cell patch clamp, IhERG tail current in transfected HEK293 cells. The source says:
(§1) For various aspects of cardiac ion channel study, human embryonic kidney (HEK293; ATCC, Manassas, VA, USA) cells were transiently transfected using lipofectAmin2000 (Gibco BRL, New York, NY, USA) according to the manufacturer’s instructions. The hERG (human ether-ago-go-related gene corresponding to IKr), KCNQ1/KCNE1 (the gene corresponding to IKs), KCNJ2 (the gene corresponding to IK1) or SCN5A (the gene corresponding to INa) cDNA was co-transfected with green fluorescence protein, the surface marker protein, to allow assessment of the transfection efficiency. For the calcium current, enzymatically isolated single rat ventricular myocytes were used. Briefly, the hearts were rapidly excised from anaesthetized Sprague–Dawley rats (250–350 g) and perfused via the aorta on a Langendorff apparatus with an oxygenated normal Tyrode (NT) solution for 5 min. To clear the blood, then perfused with Ca^2+-free normal Tyrode solution for 3 min. […]
(§2) The external solution for recording the IhERG, IKs and INa channel currents was NT solution. […] The calcium current was measured in naïve rat ventricular myocytes, cells were superfused with an external solution that consisted of (in mM): 137 choline-Cl, 5 CsCl, 0.5 MgCl2, 2 4-AP, 10 HEPES, 10 glucose and 1.8 CaCl2 (pH 7.4 with NaOH), whereas the intracellular solution used to fill the pipette had the following ionic solution (in mM): 20 CsCl, 100 Cs-aspartate, 10 EGTA, 10 HEPES, 20 TEA-Cl, 5 Mg-ATP (pH 7.25 with KOH). […]
(§3) pCLAMP (Axon Instruments, Foster City, CA, USA), Origin 8 (OriginLab Corp, Northampton, MA, USA), and Excel (Microsoft, Redmond, WA, USA) were used for data acquisition and analysis. The concentration–response relationships for drug-induced blockage were calculated using SigmaPlot (Systat Software, San Jose, CA, USA). […] Statistical significance was determined using the Student’s t-test and one-way ANOVA with post hoc testing using Dunnett’s method; p < 0.05 was considered to indicate statistical significance. […]

Another series has as its target T1, KCNQ1/KCNE1 (IKs) (Homo sapiens, UniProt P51787).
T1 construct: expressed in transfected cells; host or cells: HEK293
The experiment in a line: Whole-cell patch clamp, IKs in KCNQ1/KCNE1-cotransfected HEK293 cells. Format: cell-based. Conditions: for IKs current: HEK293.
Text: For various aspects of cardiac ion channel study, human embryonic kidney (HEK293; ATCC, Manassas, VA, USA) cells were transiently transfected using lipofectAmin2000 (Gibco BRL, New York, NY, USA) according to the manufacturer’s instructions. The hERG (human ether-ago-go-related gene corresponding to IKr), KCNQ1/KCNE1 (the gene corresponding to IKs), KCNJ2 (the gene corresponding to IK1) or SCN5A (the gene corresponding to INa) cDNA was co-transfected with green fluorescence protein, the surface marker protein, to allow assessment of the transfection efficiency. For the calcium current, enzymatically isolated single rat ventricular myocytes were used. Briefly, the hearts were rapidly excised from anaesthetized Sprague–Dawley rats (250–350 g) and perfused via the aorta on a Langendorff apparatus with an oxygenated normal Tyrode (NT) solution for 5 min. To clear the blood, then perfused with Ca^2+-free normal Tyrode solution for 3 min. Next, the heart was perfused with enzyme solution containing 0.6 mg/mL collagenase (Worthington Biomedical Corp., Lakewood, NJ, USA) for 30–40 min. Finally, this enzyme-containing solution was washed out for 5 min. with a high-K^+ and low-Cl^-) Kraft-Bruhe solution. Following the isolation procedure, the left ventricle was dissected out and agitated mechanically with a fire-polished Pasteur pipette in Kraft-Bruhe solution to obtain single myocytes. The isolated myocytes were stored at 4°C until use.
as §2, with “solution. The internal solution for IhERG contained the following (in mM): 130 KCl, 5 EGTA, 10 HEPES, 1 MgCl2, 5 Mg-ATP (pH 7.25 with KOH), and for IKs in the KCNQ1/KCNE1-cotransfected HEK293 cells, 150 KCl, 5 EGTA, 10 HEPES, 2 MgCl2, 1 CaCl2 and 5 Na2-ATP (pH adjusted 7.25 with KOH).” for “solution.”
as §3
For orientation: Patch clamp records ionic current or voltage across a cell membrane.

The target in series [2] is Ca2+-specific inward current (ICa) (Rattus norvegicus, UniProt P22002). The experiment in a line: Whole-cell patch clamp, ICa in isolated rat ventricular myocytes. Format: cell-based.
Sequence of Ca2+-specific inward current (ICa) (P22002 whole entry, other chains not shown): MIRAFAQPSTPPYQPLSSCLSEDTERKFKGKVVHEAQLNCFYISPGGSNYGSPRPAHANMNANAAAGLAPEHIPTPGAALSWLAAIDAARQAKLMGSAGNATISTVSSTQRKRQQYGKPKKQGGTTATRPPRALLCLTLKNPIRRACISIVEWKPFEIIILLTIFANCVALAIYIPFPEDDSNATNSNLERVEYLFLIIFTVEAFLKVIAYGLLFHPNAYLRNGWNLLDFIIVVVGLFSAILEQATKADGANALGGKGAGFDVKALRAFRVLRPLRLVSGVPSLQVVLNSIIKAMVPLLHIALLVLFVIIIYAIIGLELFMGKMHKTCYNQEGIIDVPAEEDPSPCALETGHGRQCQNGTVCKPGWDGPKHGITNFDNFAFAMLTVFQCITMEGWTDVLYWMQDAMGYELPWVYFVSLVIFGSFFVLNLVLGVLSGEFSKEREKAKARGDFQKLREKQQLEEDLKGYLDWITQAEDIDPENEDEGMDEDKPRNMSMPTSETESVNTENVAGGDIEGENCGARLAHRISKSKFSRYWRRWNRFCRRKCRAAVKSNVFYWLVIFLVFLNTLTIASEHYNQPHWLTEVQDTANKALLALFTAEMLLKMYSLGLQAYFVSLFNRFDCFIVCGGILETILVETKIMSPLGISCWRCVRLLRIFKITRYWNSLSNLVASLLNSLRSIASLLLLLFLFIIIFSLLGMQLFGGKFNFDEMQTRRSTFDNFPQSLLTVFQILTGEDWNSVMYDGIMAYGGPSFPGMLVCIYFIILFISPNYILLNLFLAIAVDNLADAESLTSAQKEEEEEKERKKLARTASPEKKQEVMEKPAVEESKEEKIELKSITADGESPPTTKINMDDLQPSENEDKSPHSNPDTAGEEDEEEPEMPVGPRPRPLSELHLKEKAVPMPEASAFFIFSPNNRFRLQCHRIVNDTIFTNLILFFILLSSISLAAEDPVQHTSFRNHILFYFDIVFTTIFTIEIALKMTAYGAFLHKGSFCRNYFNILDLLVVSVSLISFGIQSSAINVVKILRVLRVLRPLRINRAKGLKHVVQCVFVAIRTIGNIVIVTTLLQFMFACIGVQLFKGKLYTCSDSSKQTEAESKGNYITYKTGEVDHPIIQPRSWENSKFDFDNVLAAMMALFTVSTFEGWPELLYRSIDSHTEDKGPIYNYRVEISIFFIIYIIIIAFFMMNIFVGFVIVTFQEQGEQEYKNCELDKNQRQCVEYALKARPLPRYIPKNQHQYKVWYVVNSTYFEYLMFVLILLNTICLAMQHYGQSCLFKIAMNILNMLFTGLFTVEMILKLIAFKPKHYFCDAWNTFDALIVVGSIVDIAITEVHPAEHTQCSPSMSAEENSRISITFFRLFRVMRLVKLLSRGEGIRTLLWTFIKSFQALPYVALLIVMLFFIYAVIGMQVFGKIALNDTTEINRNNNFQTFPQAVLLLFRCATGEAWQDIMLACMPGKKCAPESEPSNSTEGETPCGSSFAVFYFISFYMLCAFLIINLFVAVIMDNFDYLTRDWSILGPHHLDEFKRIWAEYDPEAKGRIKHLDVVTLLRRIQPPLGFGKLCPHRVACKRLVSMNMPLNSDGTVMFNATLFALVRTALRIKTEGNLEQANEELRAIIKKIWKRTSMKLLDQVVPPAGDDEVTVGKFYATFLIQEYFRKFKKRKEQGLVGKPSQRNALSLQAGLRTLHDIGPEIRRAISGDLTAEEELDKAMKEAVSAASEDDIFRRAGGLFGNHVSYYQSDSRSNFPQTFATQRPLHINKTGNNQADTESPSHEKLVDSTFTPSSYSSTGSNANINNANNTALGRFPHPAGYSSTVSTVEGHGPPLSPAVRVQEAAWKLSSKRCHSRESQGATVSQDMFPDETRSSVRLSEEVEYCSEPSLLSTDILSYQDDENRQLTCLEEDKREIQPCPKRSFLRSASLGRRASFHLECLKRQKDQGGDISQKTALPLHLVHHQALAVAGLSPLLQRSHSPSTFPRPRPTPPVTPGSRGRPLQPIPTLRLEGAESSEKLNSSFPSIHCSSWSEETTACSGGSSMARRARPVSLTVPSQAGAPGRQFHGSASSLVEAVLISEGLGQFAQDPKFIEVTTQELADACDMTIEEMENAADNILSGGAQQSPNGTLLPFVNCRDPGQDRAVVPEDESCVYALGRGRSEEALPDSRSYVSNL
Sequence of Ca2+-specific inward current (ICa) (P54290 25-1091 partner, other chains not shown): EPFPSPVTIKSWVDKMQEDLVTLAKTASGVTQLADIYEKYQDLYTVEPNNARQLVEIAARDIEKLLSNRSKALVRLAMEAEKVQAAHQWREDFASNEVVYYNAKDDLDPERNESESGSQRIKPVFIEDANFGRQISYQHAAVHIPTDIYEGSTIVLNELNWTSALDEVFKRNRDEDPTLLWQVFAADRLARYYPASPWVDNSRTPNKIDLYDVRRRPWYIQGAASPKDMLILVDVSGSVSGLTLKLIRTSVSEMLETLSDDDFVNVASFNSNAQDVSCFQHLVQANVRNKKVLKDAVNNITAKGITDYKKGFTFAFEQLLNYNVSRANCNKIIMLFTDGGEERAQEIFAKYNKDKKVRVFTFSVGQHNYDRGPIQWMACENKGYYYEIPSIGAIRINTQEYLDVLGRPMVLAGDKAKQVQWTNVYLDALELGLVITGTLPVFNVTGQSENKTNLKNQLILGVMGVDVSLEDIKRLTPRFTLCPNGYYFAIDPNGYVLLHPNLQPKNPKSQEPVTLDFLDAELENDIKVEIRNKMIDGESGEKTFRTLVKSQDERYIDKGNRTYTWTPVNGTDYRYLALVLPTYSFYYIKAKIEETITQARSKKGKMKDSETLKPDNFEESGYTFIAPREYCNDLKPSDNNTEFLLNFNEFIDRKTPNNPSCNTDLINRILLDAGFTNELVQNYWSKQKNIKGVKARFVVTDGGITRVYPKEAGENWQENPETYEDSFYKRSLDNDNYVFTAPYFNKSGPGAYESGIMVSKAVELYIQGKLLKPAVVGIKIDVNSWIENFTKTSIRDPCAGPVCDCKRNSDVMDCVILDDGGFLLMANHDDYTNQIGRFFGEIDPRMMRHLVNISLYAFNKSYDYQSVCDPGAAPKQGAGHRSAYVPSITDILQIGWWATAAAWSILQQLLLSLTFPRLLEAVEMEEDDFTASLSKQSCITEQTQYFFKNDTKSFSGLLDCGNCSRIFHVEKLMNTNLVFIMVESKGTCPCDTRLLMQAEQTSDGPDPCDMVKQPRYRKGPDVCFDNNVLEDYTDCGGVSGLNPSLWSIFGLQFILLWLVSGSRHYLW
Text: as §1, §2, §3

The target of the next series is WT hERG (Homo sapiens, UniProt Q12809). The series can be described thus: Alanine scanning: wild-type hERG current in HEK-293 cells. The source says: The hERG mutations were constructed by site-directed mutagenesis of WT hERG cDNA in pcDNA3.1 vector using the QuickChange Site-Directed Mutagenesis Kit (Stratagene), and the integrity of the construct was verified by DNA sequencing. The WT hERG (generously donated by Professor Ho, Seoul National University, Korea) and mutant channels were transiently expressed in an HEK-293 cell line using Lipofectamine 2000 (Gibco), according to the manufacturer’s recommendations.

As a reminder, the inhibition is the drop in the measured response relative to a control, in per cent. High values mean a response far below the control, low ones a response near the control. As usually defined, the IC50 is the midpoint of a concentration-inhibition curve.

Sequence of hERG (IKr) (Q12809 whole entry): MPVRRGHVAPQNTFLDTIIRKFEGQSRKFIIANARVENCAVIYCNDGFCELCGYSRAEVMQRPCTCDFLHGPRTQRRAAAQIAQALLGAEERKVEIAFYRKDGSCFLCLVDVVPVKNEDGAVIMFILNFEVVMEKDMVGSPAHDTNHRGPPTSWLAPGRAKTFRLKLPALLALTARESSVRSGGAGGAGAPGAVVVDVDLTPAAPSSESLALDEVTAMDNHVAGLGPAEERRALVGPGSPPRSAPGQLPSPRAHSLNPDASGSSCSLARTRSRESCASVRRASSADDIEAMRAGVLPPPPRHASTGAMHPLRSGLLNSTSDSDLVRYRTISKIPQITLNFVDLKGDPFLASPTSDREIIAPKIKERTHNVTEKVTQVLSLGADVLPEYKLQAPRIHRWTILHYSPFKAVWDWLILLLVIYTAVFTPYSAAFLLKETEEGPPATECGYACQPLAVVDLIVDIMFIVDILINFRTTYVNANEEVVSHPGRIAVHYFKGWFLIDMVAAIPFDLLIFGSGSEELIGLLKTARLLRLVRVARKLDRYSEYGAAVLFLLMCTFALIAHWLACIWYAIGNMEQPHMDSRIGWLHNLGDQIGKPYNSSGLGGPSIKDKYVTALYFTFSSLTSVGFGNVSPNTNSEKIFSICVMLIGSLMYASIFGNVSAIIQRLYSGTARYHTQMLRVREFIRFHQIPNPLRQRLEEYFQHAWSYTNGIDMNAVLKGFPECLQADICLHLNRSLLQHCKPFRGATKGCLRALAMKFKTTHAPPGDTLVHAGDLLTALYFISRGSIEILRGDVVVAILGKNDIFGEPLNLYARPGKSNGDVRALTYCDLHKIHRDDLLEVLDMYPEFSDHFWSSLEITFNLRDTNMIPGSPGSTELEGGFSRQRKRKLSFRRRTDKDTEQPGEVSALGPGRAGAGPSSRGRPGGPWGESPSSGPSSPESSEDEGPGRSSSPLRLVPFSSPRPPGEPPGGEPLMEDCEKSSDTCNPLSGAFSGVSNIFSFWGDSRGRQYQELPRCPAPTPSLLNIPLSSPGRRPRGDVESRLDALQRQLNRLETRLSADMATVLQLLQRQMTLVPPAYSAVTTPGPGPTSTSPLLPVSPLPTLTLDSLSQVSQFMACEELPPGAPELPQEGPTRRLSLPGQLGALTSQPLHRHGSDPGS

Consider `COc1cc2c(Nc3ccc(Br)cc3F)ncnc2cc1OCC1CCN(C)CC1` [Vandetanib], for which the “Incidence of asymptomatic QTc prolongation” value in series [1] (Japanese phase I trial) is listed as 61%. In series [1] (patients), the “Patients with side effects such as diarrhea/colitis, rash, nausea, and hypertension” value is given as above 20%. Further, in series [1] (phase I trial in solid tumors), the “Patients who developed asymptomatic QTc prolongation” value was 9%. Moreover, the “Incidence of asymptomatic QT prolongation” value in series [1] (phase II trials) was 15%. Further, the inhibition at 3 μM on Y652A hERG is 64.2 ± 2.8%; on WT hERG (human, HEK-293 cells transiently expressing wild-type hERG) it was around 86.4%. For the same compound, the results for the “Reduction of IhERG current amplitude” value on hERG (IKr) (0.3 μM), on hERG (IKr) (1 μM) and at hERG (IKr) (3 μM) were 17.04%, 45.32% and 76.05%, respectively. For the same compound, the IKs current was found to be 840.7 ± 180.3 on KCNQ1/KCNE1 (IKs) (10 μM), 406.5 ± 113.7 at KCNQ1/KCNE1 (IKs) (30 μM) and 108.2 ± 8.3 at KCNQ1/KCNE1 (IKs) (100 μM). The compound further had a concentration for half-maximal inhibition (IC50) against KCNQ1/KCNE1 (IKs) (HEK293 cells) of 28 ± 1.81 µM. Moreover, the values for the ICa current in series [2] (10 μM), in series [2] (30 μM) and in series [2] (100 μM) were -1639.5 ± 238.1, -990.7 ± 97.8 and -219.7 ± 24.4, respectively. For the same compound, the “WT hERG current” value on WT hERG (3 μM) worked out at 208.9 ± 21.6.
